Test results from ChEMBL document CHEMBL1143499, “Fused pyrimidine based inhibitors of phosphodiesterase 7 (PDE7): synthesis and initial structure-activity relationships” (Bioorg Med Chem Lett, 2005).

Legend:
[1] = Inhibition of Phosphodiesterase 7
[2] = Relative binding to Phosphodiesterase 2 and Phosphodiesterase 7, ratio of IC50
[3] = Relative binding to Phosphodiesterase 5 and Phosphodiesterase 7, ratio of IC50
[4] = Relative binding to Phosphodiesterase 4 and Phosphodiesterase 7, ratio of IC50
[5] = Relative binding to Phosphodiesterase 3 and Phosphodiesterase 7, ratio of IC50
[6] = Relative binding to Phosphodiesterase 1 and Phosphodiesterase 7, ratio of IC50
[7] = Inhibition of Phosphodiesterase 5
[8] = molecular target: cGMP-dependent 3',5'-cyclic phosphodiesterase (Homo sapiens, UniProt O00408); assay: Inhibition of Phosphodiesterase 2
[9] = Inhibition of Phosphodiesterase 4
[10] = Inhibition of Phosphodiesterase 1
Phosphodiesterase 3 = Phosphodiesterase 3 (Homo sapiens, UniProt Q14432+Q13370); assay: Inhibition of Phosphodiesterase 3; format: protein assay

cGMP-dependent 3',5'-cyclic phosphodiesterase, sequence (O00408 whole entry): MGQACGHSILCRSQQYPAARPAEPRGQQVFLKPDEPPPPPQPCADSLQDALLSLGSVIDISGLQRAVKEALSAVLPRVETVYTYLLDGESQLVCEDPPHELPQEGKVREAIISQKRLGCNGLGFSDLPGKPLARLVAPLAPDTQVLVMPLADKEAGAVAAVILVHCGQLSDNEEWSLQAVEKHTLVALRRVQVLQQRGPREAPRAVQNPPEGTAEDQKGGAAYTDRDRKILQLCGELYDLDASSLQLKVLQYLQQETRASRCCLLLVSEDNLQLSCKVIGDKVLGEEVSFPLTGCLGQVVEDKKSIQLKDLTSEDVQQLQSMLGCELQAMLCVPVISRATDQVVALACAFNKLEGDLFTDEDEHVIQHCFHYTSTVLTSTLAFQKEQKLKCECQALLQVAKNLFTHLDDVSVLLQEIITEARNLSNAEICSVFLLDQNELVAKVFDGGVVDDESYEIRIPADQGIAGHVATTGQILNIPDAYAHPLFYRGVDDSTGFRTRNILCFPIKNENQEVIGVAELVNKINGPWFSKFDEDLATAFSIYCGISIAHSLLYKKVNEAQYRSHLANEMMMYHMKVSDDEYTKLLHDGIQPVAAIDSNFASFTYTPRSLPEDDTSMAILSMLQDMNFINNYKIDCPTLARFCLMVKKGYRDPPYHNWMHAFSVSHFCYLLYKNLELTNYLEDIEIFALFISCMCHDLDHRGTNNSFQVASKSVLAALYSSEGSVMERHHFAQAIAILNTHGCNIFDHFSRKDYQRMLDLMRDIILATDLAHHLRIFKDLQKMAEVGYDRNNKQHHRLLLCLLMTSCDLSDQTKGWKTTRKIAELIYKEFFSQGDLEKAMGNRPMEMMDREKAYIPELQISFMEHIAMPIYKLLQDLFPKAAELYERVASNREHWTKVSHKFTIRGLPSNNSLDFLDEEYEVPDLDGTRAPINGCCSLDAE

For `CCOC(=O)c1sc(Nc2nc(N3CCNCC3)c3c(n2)N(Cc2ccc(S(C)(=O)=O)cc2)CCC3)nc1C`, the IC50 [1] was 60 nM, the Ratio [2] was 27 and the Ratio [3] was 8. For the same compound, the Ratio [4] was 54, the Ratio [5] was 392 and the Ratio [6] was 157.
For `COc1ccc(C2CNC(=O)C2)cc1OC1CCCC1` (stereo not given) [ROLIPRAM], the IC50 [1] was over 10000 nM, the IC50 [7] was over 10000 nM and the IC50 [8] was over 10000 nM. It also gave an IC50 [9] of 740 nM, an IC50 [10] of over 10000 nM and an IC50 (Phosphodiesterase 3) of over 10000 nM.
Compound `CCOC(=O)c1sc(Nc2nc(NC)c3ncn(Cc4ccc(S(C)(=O)=O)cc4)c3n2)nc1C` has an IC50 [1] of 90 nM, a Ratio [3] of 8 and a Ratio [4] of 3. The IC50 [7] was 720 nM, the Ratio [5] was 259 and the IC50 [9] was 270 nM. For the same compound, the IC50 [10] was 50000 nM, the Ratio [6] was 556 and the IC50 (Phosphodiesterase 3) was 23300 nM.
`CCOC(=O)c1sc(Nc2nc(N3CCNCC3)c3c(n2)N(Cc2cc(OC)c(OC)c(OC)c2)CCC3)nc1C` gave an IC50 [1] of 30 nM, a Ratio [2] of 114 and a Ratio [3] of 182. For the same compound, the Ratio [4] was 105, the Ratio [5] was 734 and the Ratio [6] was 166.
Work on `CCOC(=O)c1sc(Nc2nc(N3CCN(C)CC3)c3c(n2)N(Cc2cc(OC)c(OC)c(OC)c2)CC3)nc1C` yielded an IC50 [1] of 20 nM, a Ratio [3] of 104 and a Ratio [4] of 189. It also gave a Ratio [5] of 315 and a Ratio [6] of 156.
With `CCCc1nn(C)c2c(=O)[nH]c(-c3cc(S(=O)(=O)N4CCN(C)CC4)ccc3OCC)nc12` the IC50 [1] was over 10000 nM, the IC50 [7] was 11 nM and the IC50 [9] was 4600 nM. It also gave an IC50 [10] of over 10000 nM.
In the case of `CCOC(=O)c1sc(Nc2nc(NC)c3c(n2)N(Cc2ccc(S(C)(=O)=O)cc2)CC3)nc1C`, the IC50 [1] is reported as 340 nM and the Ratio [4] is reported as 6.
Work on `CCOC(=O)c1sc(Nc2nc(NCc3ccc(S(N)(=O)=O)cc3)c3c(ncn3CC)n2)nc1C` yielded an IC50 [1] of 11 nM, an IC50 [7] of 11 nM and an IC50 [8] of 950 nM. For the same compound, the IC50 [9] was 550 nM, the IC50 [10] was 950 nM and the IC50 (Phosphodiesterase 3) was 2970 nM.
For `CCOC(=O)c1sc(Nc2nc(NCc3ccc(OC)c(OC)c3)c3c(ncn3CC)n2)nc1C`, the IC50 [1] was 150 nM, the Ratio [2] was 11 and the Ratio [3] was 1.8. For the same compound, the Ratio [4] was 7.3, the IC50 [7] was 270 nM and the Ratio [5] was 3.8. The IC50 [8] was 1700 nM, the IC50 [10] was 220 nM and the Ratio [6] was 1.5. It also gave an IC50 (Phosphodiesterase 3) of 580 nM.
`CCOC(=O)c1sc(Nc2nc(N3CCNCC3)c3c(n2)N(Cc2cc(OC)c(OC)c(OC)c2)CCO3)nc1C` gave an IC50 [1] of 5 nM, a Ratio [3] of 1240 and a Ratio [4] of 1200. For the same compound, the Ratio [5] was 3850 and the Ratio [6] was 1170.
For `CCOC(=O)c1sc(Nc2nc(N3CCNCC3)c3c(n2)N(Cc2cc(OC)c(OC)c(OC)c2)CC3)nc1C`, the IC50 [1] was 6 nM, the Ratio [3] was 362 and the Ratio [4] was 795. It also gave a Ratio [5] of 1880 and a Ratio [6] of 576.
`CCOC(=O)c1sc(Nc2nc(N3CCNCC3)c3c(n2)N(Cc2cccnc2)CCC3)nc1C` showed an IC50 [1] of 100 nM, a Ratio [2] of 33 and a Ratio [3] of 13. The Ratio [4] was 35, the Ratio [5] was 390 and the Ratio [6] was 162.
With `CCOC(=O)c1sc(Nc2nc(N3CCNCC3)c3c(n2)N(Cc2ccc(S(C)(=O)=O)cc2)CC3)nc1C` the IC50 [1] was 20 nM, the Ratio [3] was 1 and the Ratio [4] was 94. For the same compound, the Ratio [5] was 1030 and the Ratio [6] was 352.
In the case of `CCOC(=O)c1sc(Nc2nc(N3CCN(C)CC3)c3c(n2)N(Cc2cc(OC)c(OC)c(OC)c2)CCC3)nc1C`, the IC50 [1] is reported as 150 nM, the Ratio [3] is reported as 9 and the Ratio [4] is reported as 27. It also gave a Ratio [5] of 174 and a Ratio [6] of 39.
For `CCOC(=O)c1sc(Nc2nc(N3CCN(O)CC3)c3c(n2)N(Cc2ccccn2)CC3)nc1C`, the IC50 [1] was 150 nM, the Ratio [3] was 7 and the Ratio [4] was 13. It also gave a Ratio [5] of 154 and a Ratio [6] of 35.
`CCOC(=O)c1sc(Nc2nc(N3CCN(C)CC3)c3c(n2)N(Cc2cc(OC)c(OC)c(OC)c2)CCO3)nc1C` showed an IC50 [1] of 70 nM, a Ratio [3] of 64 and a Ratio [4] of 67. The Ratio [5] was 206 and the Ratio [6] was 64.
